# Test results: ChEMBL document CHEMBL5120765, “Synthesis of novel 1-phenyl-benzopyrrolizidin-3-one derivatives and evaluation of their cytoneuroprotective effects against NMDA-induced injury in PC12 cells” (Bioorg Med Chem, 2022)
# Calls of active or inactive are those of the source. No cut-off for these calls is given here.
# Key:
# [1] = test system: PC-12; assay: Neuroprotective activity against NMDA-induced excitotoxicity in rat PC-12 cells assessed as increase in cell viability at 20 uM pretreated for 24 hr followed by NMDA addition and measured after 6 hrs by MTT assay; assay type: functional
# [2] = test system: PC-12; assay: Neuroprotective activity against NMDA-induced excitotoxicity in rat PC-12 cells assessed as increase in cell viability pretreated for 24 hr followed by NMDA addition and measured after 6 hrs by MTT assay; assay type: functional, cell-based; conditions: dose 2.5-20 µM, time 30.0 hrs, DDE = dose-dependent effect
# [3] = test system: PC-12; assay: Neuroprotective activity against NMDA-induced excitotoxicity in rat PC-12 cells assessed as increase in cell viability at 5 uM pretreated for 24 hr followed by NMDA addition and measured after 6 hrs by MTT assay; assay type: functional, cell-based; conditions: time 30.0 hrs
# [4] = test system: PC-12; assay: Neuroprotective activity against NMDA-induced excitotoxicity in rat PC-12 cells assessed as increase in cell viability at 15 uM pretreated for 24 hr followed by NMDA addition and measured after 6 hrs by MTT assay; assay type: functional; conditions: time 30 hrs
# [5] = test system: PC-12; assay: Neuroprotective effect against NMDA-induced rat PC-12 cells assessed as prevention of morphological changes at 15 uM; assay type: functional, cell-based
# [6] = test system: PC-12; assay: Inhibition of NMDA-induced Ca2+ influx in rat PC-12 cells assessed as reduction in intracellular Ca2+ concentration at 15 uM pretreated for 24 hr followed by NMDA addition and measured after 6 hrs by Fluo2-AM staining based fluorescence microscopic method; assay type: functional, cell-based; conditions: time 30.0 hrs
smiles,measurement,setting,value
O=C1C[C@@H](c2cccc(OCc3ccccc3)c2)[C@H]2Cc3c(F)cccc3N12 (racemic),Activity,[1]; time 30 hrs,94.59%
same,Activity,[2],Dde
same,Activity,[3],Active
same,Activity,[4],96.16%
same,Activity,[5],Active
same,inhibition,[6],Active
COc1c(OCc2ccccc2)cccc1[C@@H]1CC(=O)N2c3ccccc3C[C@H]12 (racemic),Activity,[1]; time 30.0 hrs,Active
COc1cc(OC)cc([C@@H]2CC(=O)N3c4ccccc4C[C@H]23)c1 (racemic),Activity,[1]; time 30.0 hrs,Active
COc1ccc([C@@H]2CC(=O)N3c4ccccc4C[C@H]23)cc1 (racemic),Activity,[1]; time 30.0 hrs,Active
COc1ccccc1[C@@H]1CC(=O)N2c3ccccc3C[C@H]12 (racemic),Activity,[1]; time 30.0 hrs,Active
O=C1C[C@@H](c2cccc(OCc3ccccc3)c2)[C@H]2Cc3cc(OCc4ccccc4)ccc3N12 (racemic),Activity,[1]; time 30.0 hrs,Active
O=C1C[C@@H](c2cccc(OCc3ccccc3)c2)[C@H]2Cc3ccccc3N12 (racemic),Activity,[1]; time 30.0 hrs,Active
O=C1C[C@@H](c2ccccc2)[C@H]2Cc3ccccc3N12 (racemic),Activity,[1]; time 30.0 hrs,Active
O=C1C[C@H](c2cccc(OCc3ccccc3)c2)[C@H]2Cc3c(F)cccc3N12 (racemic),Activity,[1]; time 30.0 hrs,Active
O=C1C[C@H](c2cccc(OCc3ccccc3)c2)[C@H]2Cc3ccccc3N12 (racemic),Activity,[1]; time 30.0 hrs,Active
C[C@]12N[C@H](Cc3ccccc31)c1ccccc12.O=C(O)/C=C\C(=O)O [DIZOCILPINE MALEATE],Activity,[1]; time 30 hrs,95.48%
same,Activity,[2],Dde
same,Activity,[3],Active
same,Activity,[4],96.96%
same,Activity,[5],Active
same,inhibition,[6],Active
